Measured values published in patent US10045984B2, “Combination therapy” (priority 2008, dated 2018).

Legend:
[1] = test system: Influenza A, B and Rhino virus; experiment: Group B randomized double blind trial in uncomplicated viral upper respiratory tract infection, with case reports; assay type: in vivo, human; conditions: for clinical state at day 5 after starting treatment: n=5 per group; for clinical state: influenza type B
From the text: RT-PCR (reverse transcriptase-PCR) was used for subtyping and for detection of rhinovirus. RT-PCR is done on swabs. In the case of the patient groups, RT-PCR determined the presence of subtypes influenza H3, rhino virus and RSV. IFA and RT-PCR was repeated after treatment to ensure viral eradication from the patient.
Group B patients included 20 patients, aged 19 years to 57 years, 14 men and 6 women, with influenza but uncomplicated upper airway infection. […] The viruses identified were Influenza A, B and Rhino virus.
On day 3-5 of the illness (influenza) they received either a zinc/trimethoprim mixture, zinc, trimethoprim alone or vitamin C alone in a randomized double blind trial. The subjects were reviewed at 2 and 5 days after starting treatment.
The Tri-Z dose ranged between 100 mg (82 mg Tri and 18 mg zinc) to 200 mg (164 mg Tri and 36 mg zinc) twice daily. Trimethoprim only was administered in quantities of between 100 mg and 200 mg twice daily. Zinc only was administered in quantities of 50 mg three times daily. Vitamin C was administered in 1 g quantities twice daily.
Points on the graph shown in FIG. 6 are group means (for n=5) which highlights the difference in illness duration. […] Repeat IFA and RT-PCR tests were negative by day 2.
(i) person presented with headache, no photophobia, body ache, feeling tired and lethargic, blocked runny nose, dry throat and feeling hot for the last 4 days. Temperature was 38.5 C, respiratory rate 18/min, heart rate 75/min regular, BP 115/70 mmHg, clear nasal discharge, blood shot eyes, clear throat. Chest was clear with normal breath sounds. No cervical lymph nodes.
Nasal aspirate and throat swab was taken for virus and bacteria. […] Cultures were negative for bacterial growth at 48 and 72 hours.
They were commenced on the zinc/trimethoprim mixture twice daily (initial dose 200 mg of trimethoprim and 100 mg zinc sulphate for first dose then reduced to 100 mg of trimethoprim and 50 mg of zinc sulphate given simultaneously on an empty stomach) for 5 days.
(ii) person presented with body ache, generally feeling tired, blocked runny nose, sore eyes, dry throat, headache and feeling hot for the last 4 days. Their temperature was 38 C. Their chest was clear with normal breath sounds. Respiratory rate 16/min, heart rate 84/min regular, BP 135/78 mmhg. Nasal aspirate and throat swabs was taken for virus and bacteria.
Bacterial culture at 48 and 72 hours were negative.
(iii) person presented with feeling hot, blocked nose that is runny, headache, body ache, dry cough, sore eyes for last 4 days.
Temperature was 38.5 C, heart rate 60/min, respiratory rate 16/min, BP 120/70 mmHg, chest clear with normal breath sounds, no lymphadenopathy, conjunctival congestion, throat clear.
Nasal aspirate and throat swab were taken for virus and bacteria. They were started on Trimethoprim 200 mg twice daily for 5 days.

viral replication = conditions: cited from earlier work
[2] = case (ii) person, day 5 after treatment

## [Zn] [zinc]
[1]
  clinical state at day 5 after starting treatment: not back to normal
Viral replication
  concentration in a subject that affects viral replication: 0.05 mMolar

## O=C1O[C@H]([C@@H](O)CO)C(O)=C1O [vitamin C]
[1]
  clinical state at day 5 after starting treatment: not back to normal

## COc1cc(Cc2cnc(N)nc2N)cc(OC)c1OC [trimethoprim, 5-(3,4,5-trimethoxybenzyl)pyrimidine-2,4-diamine]
[1]; case (iii) person, day 5 of treatment
  nasal aspirate viral test: influenza type B
[1]; case (iii) person, day 5 of treatment, 38.5 C before
  temperature: 37.8 C
[1]; case (iii) person, 200 mg twice daily, 2 days later
  clinical state: the same
[1]; case (iii) person, well enough to go back to work
  day of the illness when recovery started: 14 days
[1]
  clinical state at day 5 after starting treatment: not back to normal

## O=S(=O)([O-])[O-].[Zn+2] [zinc sulphate]
[1]; case (ii) person, 2 days after treatment
  repeat viral test: influenza type B
[1]; [2]
  control of symptoms: ineffective
  nasal aspirate viral test: influenza type B
[1]; case (ii) person, 100 mg twice daily, 2 days after treatment
  clinical state: the same
[1]; case (ii) person, still feeling unwell
  day of the illness of return to work: 14 days
